Assay [1] has as its system DBA (free dopamine binding aptamer) (DNA, aptamer) CGACGCCAGTTTGAAGGTTCGTTCGCAGGTGTGGAGTGACGTCG
As to conditions: conditions not stated.

In assay [2] the test system is aptananozyme V (amino-DBA with (TGTA)3 spacer (5) on Ce4+-ion-modified C-dots) (DNA, aptamer) TGTATGTATGTACGACGCCAGTTTGAAGGTTCGTTCGCAGGTGTGGAGTGACGTCG
Put plainly: ITC. As to conditions: 100 mM NaCl, 5 mM MgCl2; 5 mM MES pH 5.5; aptamer immobilised on Ce4+-C-dots; 20 µM aptananozyme, 600 µM dopamine titrant.

The test system of assay [3] is aptananozyme III (amino-DBA with (TGTA) spacer (3) on Ce4+-ion-modified C-dots) (DNA, aptamer) TGTACGACGCCAGTTTGAAGGTTCGTTCGCAGGTGTGGAGTGACGTCG
Put plainly: ITC. As to conditions: 100 mM NaCl, 5 mM MgCl2; 5 mM MES pH 5.5; aptamer immobilised on Ce4+-C-dots; 20 µM aptananozyme, 600 µM dopamine titrant.

In assay [4] the test system is aptananozyme IV (amino-DBA with (TGTA)2 spacer (4) on Ce4+-ion-modified C-dots) (DNA, aptamer) TGTATGTACGACGCCAGTTTGAAGGTTCGTTCGCAGGTGTGGAGTGACGTCG
Kind of assay: ITC. As to conditions: 100 mM NaCl, 5 mM MgCl2; 5 mM MES pH 5.5; aptamer immobilised on Ce4+-C-dots; 20 µM aptananozyme, 600 µM dopamine titrant.

The structures appear in SMILES notation.

`NCCc1ccc(O)c(O)c1`: the Kd in assay [1] was 720 ± 30 nM; in assay [2] it was 910 ± 100 nM; in assay [3], 950 ± 30 nM; in assay [4], 880 ± 40 nM.

The values are drawn from publication PMC9782376 (2022).
